From patent publication US20240148821A1, “PHARMACEUTICAL USE OF CYCLIC PEPTIDE COMPOUND” (CHUGAI SEIYAKU KABUSHIKI KAISHA, priority 2021, published 2024)
pIC50: −log10 of the molar value. Numbered stars: 1 amine (or outer) side, 2 acyl side, 3 side chain; on linkers, the order of the positions; unused ones are H or OH. Bridge positions count the residues as written; N and C are the ends. Square brackets hold non-standard residues; d marks the D form. Peptide text beside a SMILES is read from it. * marks the point of attachment. hPhe(3-Cl-4-CF3) = N[C@@H](CCc1ccc(C(F)(F)F)c(Cl)c1)C(=O)O; hPhe(3-F,4-CF3) = N[C@@H](CCc1ccc(C(F)(F)F)c(F)c1)C(=O)O; NMePhe(4-CF3) = CN[C@@H](Cc1ccc(C(F)(F)F)cc1)C(=O)O; X71 = O=C([C@H](CCc1ccc(C(F)(F)F)cc1F)N[*:1])[*:2]; hPhe(4-CF3) = N[C@@H](CCc1ccc(C(F)(F)F)cc1)C(=O)O; X37 = CC(C)(C)NC(=O)COC[C@H](CC(=O)[*:1])N[*:2]; 3Oxa8azabicyclo(3.2.1)octane = C1CC2COCC1N2*; NMePhe(4-Cl) = CN[C@@H](Cc1ccc(Cl)cc1)C(=O)O; NEtPhe(2-Cl) = CCN[C@@H](Cc1ccccc1Cl)C(=O)O; NMePhe(4-Me) = CN[C@@H](Cc1ccc(C)cc1)C(=O)O; NMeGly(cPent) = CN[C@H](C(=O)O)C1CCCC1; NMeCha = CN[C@@H](CC1CCCCC1)C(=O)O; Azetidine(3,3-F2) = FC1(F)CN(*)C1; NEtLeu = CCN[C@@H](CC(C)C)C(=O)O; NMeChg = CN[C@H](C(=O)O)C1CCCCC1; NMeF = CN[C@@H](Cc1ccccc1)C(=O)O; NMeI = CC[C@H](C)[C@H](NC)C(=O)O; d(β3hL) = CC(C)C[C@@H](N)CC(=O)O; NMeE = CN[C@@H](CCC(=O)O)C(=O)O; Piperidide(4-Me) = CC1CCN(*)CC1; NMeD = CN[C@@H](CC(=O)O)C(=O)O; CH2CONHtBu = CC(C)(C)NC(=O)C*; NMeL = CN[C@@H](CC(C)C)C(=O)O; NMeNva = CCC[C@H](NC)C(=O)O; NMeV = CN[C@H](C(=O)O)C(C)C; d(β3hA) = C[C@@H](N)CC(=O)O; NMeS = CN[C@@H](CO)C(=O)O; Morpholide = C1CN(*)CCO1; NMeA = CN[C@@H](C)C(=O)O; Piperidide = C1CCN(*)CC1; Pyrrolidide = C1CCN(*)C1; dNMeA = CN[C@H](C)C(=O)O; Ac5c = NC1(C(=O)O)CCCC1; Aze = O=C(O)[C@@H]1CCN1; Isopentyl = CC(C)CC*; Sar = CNCC(=O)O; Propyl = CCC*

What follows are compounds tested against protein-protein interaction between Kras and SOS1 (biotin-tagged human Kras loaded with GDP, His-tagged human SOS1) (Homo sapiens (Human), UniProt P01116, G12D) (assay: Protein-protein interaction inhibition between Kras and SOS1 (KrasG12D-SOS PPI) using AlphaScreen). Settings: AlphaScreen; biotin-tagged human Kras loaded with GDP, His-tagged human SOS1; read-out: KRAS G12D-SOS PPI IC50.
Format: biochemical

| Structure (SMILES) | pIC50 |
| --- | --- |
| CC[C@H](C)[C@@H]1NC(=O)[C@H](CC(C)C)N(C)C(=O)C[C@@H](C(=O)N2CCC(C)CC2)N(C)C(=O)[C@H](C(C)C)N(C)C(=O)C2(CCCC2)NC(=O)[C@@H]2CCCN2C(=O)[C@H](CCc2ccc(C(F)(F)F)c(Cl)c2)NC(=O)CN(C)C(=O)[C@H](CC2CCCCC2)N(C)C(=O)[C@@H]2CCN2C(=O)[C@H](C)N(C)C1=O [Compound 1291] ([NMeL]I[NMeA][Aze][NMeCha][Sar][hPhe(3-Cl-4-CF3)]P[Ac5c][NMeV][NMeD]-{Piperidide(4-Me)}; lactam N-11) | 8.27 |
| CC[C@H](C)[C@@H]1NC(=O)[C@H](C)N(C)C(=O)C[C@@H](C(=O)N2CCOCC2)N(C)C(=O)[C@H](C(C)C)N(C)C(=O)C2(CCCC2)NC(=O)[C@H](Cc2ccccc2Cl)N(CC)C(=O)[C@H](CCc2ccc(C(F)(F)F)c(Cl)c2)NC(=O)CN(C)C(=O)[C@H](CC2CCCCC2)N(C)C(=O)CN(C)C(=O)CN(C)C1=O [Compound 2167] ([NMeA]I[Sar][Sar][NMeCha][Sar][hPhe(3-Cl-4-CF3)][NEtPhe(2-Cl)][Ac5c][NMeV][NMeD]-Morpholide; lactam N-11) | 6.42 |
| CC[C@H](C)[C@@H]1NC(=O)[C@H](CC(C)C)N(C)C(=O)C[C@@H](C(=O)N(C)C)N(C)C(=O)[C@H](C2CCCCC2)N(C)C(=O)C2(CCCC2)NC(=O)[C@@H]2CCCN2C(=O)[C@H](CCc2ccc(C(F)(F)F)c(Cl)c2)NC(=O)CN(C)C(=O)[C@H](Cc2ccc(C)cc2)N(C)C(=O)[C@@H]2CCN2C(=O)[C@H](C)N(C)C1=O [Compound 1685] ([NMeL]I[NMeA][Aze][NMePhe(4-Me)][Sar][hPhe(3-Cl-4-CF3)]P[Ac5c][NMeChg][NMeD]-NMe2; lactam N-11) | 9.22 |
| CC[C@H](C)[C@@H]1NC(=O)[C@H](CC(C)C)N(CC)C(=O)C[C@@H](C(=O)N2CCOCC2)N(C)C(=O)[C@H]([C@@H](C)CC)N(C)C(=O)C2(CCCC2)NC(=O)[C@@H]2CCCN2C(=O)[C@H](CCc2ccc(C(F)(F)F)c(Cl)c2)NC(=O)CN(C)C(=O)[C@H](Cc2ccc(C(F)(F)F)cc2)N(C)C(=O)[C@@H]2CCN2C(=O)[C@H](C)NC1=O [Compound 1233] ([NEtLeu]IA[Aze][NMePhe(4-CF3)][Sar][hPhe(3-Cl-4-CF3)]P[Ac5c][NMeI][NMeD]-Morpholide; lactam N-11) | 8.60 |
| CC[C@H](C)[C@@H]1NC(=O)[C@H](CC(C)C)N(C)C(=O)C[C@@H](C(=O)N2CCOCC2)N(C)C(=O)[C@H](C(C)C)N(C)C(=O)C2(CCCC2)NC(=O)[C@@H]2CCCN2C(=O)[C@H](CCc2ccc(C(F)(F)F)c(Cl)c2)NC(=O)CN(C)C(=O)[C@H](CC2CCCCC2)N(C)C(=O)[C@@H]2CCN2C(=O)CN(C)C1=O [Compound 1758] ([NMeL]I[Sar][Aze][NMeCha][Sar][hPhe(3-Cl-4-CF3)]P[Ac5c][NMeV][NMeD]-Morpholide; lactam N-11) | 8.92 |
| CC[C@H](C)[C@@H]1NC(=O)[C@H](CC(C)C)N(C)C(=O)C[C@@H](CC(C)C)NC(=O)[C@H]([C@@H](C)CC)N(C)C(=O)C2(CCCC2)NC(=O)[C@@H]2CCCN2C(=O)[C@H](CCc2ccc(C(F)(F)F)c(Cl)c2)NC(=O)CN(C)C(=O)[C@H](Cc2ccc(C(F)(F)F)cc2)N(C)C(=O)[C@@H]2CCN2C(=O)[C@H](C)N(C)C1=O [Compound 1899] (cyclo([Ac5c][NMeI][d(β3hL)][NMeL]I[NMeA][Aze][NMePhe(4-CF3)][Sar][hPhe(3-Cl-4-CF3)]P)) | 6.66 |
| CCCOC[C@H]1C(=O)N(C)CC(=O)N[C@@H](CCc2ccc(C(F)(F)F)c(F)c2)C(=O)N2CCC[C@H]2C(=O)NC2(CCCC2)C(=O)N(C)[C@@H](C2CCCC2)C(=O)N(C)[C@H](C(=O)N2C3CCC2COC3)CC(=O)N(C)[C@@H](CC(C)C)C(=O)N[C@@H]([C@@H](C)CC)C(=O)N(C)[C@@H](C)C(=O)N2CC[C@H]2C(=O)N1C [Compound 1030] ([NMeL]I[NMeA][Aze][NMeS](Propyl)[Sar][hPhe(3-F,4-CF3)]P[Ac5c][NMeGly(cPent)][NMeD]-{3Oxa8azabicyclo(3.2.1)octane}; lactam N-11) | 8.77 |
| CCCOC[C@H]1C(=O)N(C)CC(=O)N[C@@H](CCc2ccc(C(F)(F)F)c(F)c2)C(=O)N2CCC[C@H]2C(=O)NC2(CCCC2)C(=O)N(C)[C@@H]([C@@H](C)CC)C(=O)N(C)[C@H](C(=O)N2CCOCC2)CC(=O)N(C)[C@@H](CC(C)C)C(=O)N[C@@H]([C@@H](C)CC)C(=O)N(C)[C@@H](C)C(=O)N2CC[C@H]2C(=O)N1C [Compound 827] ([NMeL]I[NMeA][Aze][NMeS](Propyl)[Sar][hPhe(3-F,4-CF3)]P[Ac5c][NMeI][NMeD]-Morpholide; lactam N-11) | 8.55 |
| CC[C@H](C)[C@@H]1NC(=O)[C@H](CC(C)C)N(C)C(=O)C[C@@H](C(=O)N2CCOCC2)N(C)C(=O)[C@H](C2CCCC2)N(C)C(=O)C2(CCCC2)NC(=O)[C@H](CCC(=O)N(C)C)N(C)C(=O)[C@H](CCc2ccc(C(F)(F)F)c(Cl)c2)NC(=O)CN(C)C(=O)[C@H](CC2CCCCC2)N(C)C(=O)[C@@H]2CCN2C(=O)[C@H](C)N(C)C1=O [Compound 2108, 3-[(3S,6S,9S,13S,16S,22S,25S,31S,34S)-25-[2-[3-chloro-4-(trifluoromethyl)phenyl]ethyl]-31-(cyclohexylmethyl)-16-cyclopentyl-9-isobutyl-3,4,10,14,17,23,29,32-octamethyl-6-[(1S)-1-methylpropyl]-13-(morpholine-4-carbonyl)-2,5,8,11,15,18,21,24,27,30,33-undecaoxo-spiro[1,4,7,10,14,17,20,23,26,29,32-undecazabicyclo[32.2.0]hexatriacontane-19,1′-cyclopentane]-22-yl]-N,N-dimethyl-propanamide] ([NMeL]I[NMeA][Aze][NMeCha][Sar][hPhe(3-Cl-4-CF3)][NMeE](NMe2)[Ac5c][NMeGly(cPent)][NMeD]-Morpholide; lactam N-11) | 8.10 |
| CC[C@H](C)[C@@H]1NC(=O)[C@H](CC(C)C)N(C)C(=O)C[C@@H](C)NC(=O)[C@H](CC(C)C)N(C)C(=O)C2(CCCC2)NC(=O)[C@H](COCC(=O)NC(C)(C)C)N(C)C(=O)[C@H](CCc2ccc(C(F)(F)F)c(Cl)c2)NC(=O)CN(C)C(=O)[C@H](COCCC(C)C)N(C)C(=O)CN(C)C(=O)CN(C)C1=O [Compound 1492] (cyclo([Ac5c][NMeL][d(β3hA)][NMeL]I[Sar][Sar][NMeS](Isopentyl)[Sar][hPhe(3-Cl-4-CF3)][NMeS](CH2CONHtBu))) | 6.62 |
| CC[C@H](C)[C@@H]1NC(=O)[C@H](CC(C)C)N(C)C(=O)C[C@@H](C(=O)N2CCOCC2)N(C)C(=O)[C@H](C2CCCC2)N(C)C(=O)C2(CCCC2)NC(=O)[C@H](CCC(=O)N2CC(F)(F)C2)N(C)C(=O)[C@H](CCc2ccc(C(F)(F)F)c(Cl)c2)NC(=O)CN(C)C(=O)[C@H](CC2CCCCC2)N(C)C(=O)[C@@H]2CCN2C(=O)[C@H](C)N(C)C1=O [Compound 2098] ([NMeL]I[NMeA][Aze][NMeCha][Sar][hPhe(3-Cl-4-CF3)][NMeE](Azetidine(3,3-F2))[Ac5c][NMeGly(cPent)][NMeD]-Morpholide; lactam N-11) | 8.10 |
| CC[C@H](C)[C@@H]1NC(=O)[C@H](C)N(C)C(=O)C[C@@H](C)NC(=O)[C@H](C(C)C)N(C)C(=O)C2(CCCC2)NC(=O)[C@@H]2CCCN2C(=O)[C@H](CCc2ccc(C(F)(F)F)c(Cl)c2)NC(=O)[C@@H](C)N(C)C(=O)[C@H](CC2CCCCC2)N(C)C(=O)[C@@H]2CCCN2C(=O)[C@@H]2CCN2C1=O [Compound 2009] (cyclo([Ac5c][NMeV][d(β3hA)][NMeA]I[Aze]P[NMeCha][dNMeA][hPhe(3-Cl-4-CF3)]P)) | 7.09 |
| CCC[C@H]1C(=O)NC2(CCCC2)C(=O)N(C)[C@@H](C2CCCCC2)C(=O)N(C)[C@H](C(=O)N2CCCCC2)CC(=O)N(C)[C@@H](CC(C)C)C(=O)N[C@@H]([C@@H](C)CC)C(=O)N(C)CC(=O)N(C)CC(=O)N(C)[C@@H](CC2CCCCC2)C(=O)N(C)CC(=O)N[C@@H](CCc2ccc(C(F)(F)F)c(Cl)c2)C(=O)N1C [Compound 1005] ([NMeL]I[Sar][Sar][NMeCha][Sar][hPhe(3-Cl-4-CF3)][NMeNva][Ac5c][NMeChg][NMeD]-Piperidide; lactam N-11) | 8.46 |
| CC[C@H](C)[C@@H]1NC(=O)[C@H](C)N(C)C(=O)C[C@@H](C(=O)N2CCCC2)NC(=O)[C@H](CC(C)C)N(C)C(=O)[C@H](Cc2ccccc2)N(C)C(=O)[C@@H]2CCCN2C(=O)[C@H](CCc2ccc(C(F)(F)F)cc2F)NC(=O)CN(C)C(=O)[C@H](Cc2ccc(Cl)cc2)N(C)C(=O)CN(C)C(=O)CN(C)C1=O [Compound 2096, (3S,9S,18S,21S,25S,28S,31S,34S)-31-benzyl-9-[(4-chlorophenyl)methyl]-3-[2-[2-fluoro-4-(trifluoromethyl)phenyl]ethyl]-28-isobutyl-7,10,13,16,21,22,29,32-octamethyl-18-[(1S)-1-methylpropyl]-25-(pyrrolidine-1-carbonyl)-1,4,7,10,13,16,19,22,26,29,32-undecazabicyclo[32.3.0]heptatriacontane-2,5,8,11,14,17,20,23,27,30,33-undecone] ([NMeA]I[Sar][Sar][NMePhe(4-Cl)][Sar][X71]P[NMeF][NMeL]D-Pyrrolidide; lactam N-11) | 7.72 |
| CC[C@H](C)[C@@H]1NC(=O)[C@H](C(C)C)N(C)C(=O)C[C@@H](COCC(=O)NC(C)(C)C)NC(=O)[C@H](CC(C)C)N(C)C(=O)C2(CCCC2)NC(=O)[C@H](CC(C)C)N(C)C(=O)[C@H](CCc2ccc(C(F)(F)F)cc2)NC(=O)CN(C)C(=O)[C@H](Cc2ccc(Cl)cc2)N(C)C(=O)CN(C)C(=O)CN(C)C1=O [Compound 759] ([NMeV]I[Sar][Sar][NMePhe(4-Cl)][Sar][hPhe(4-CF3)][NMeL][Ac5c][NMeL]; linker N-C via X37) | 6.80 |
